One block for each molecule: values may come before it.
How the values were obtained:
GPR24 [1] = test: Cell-based cAMP for Gi coupled target GPCRs, co-transfection with signal enhancer TSHR-A623I; parameters: species or system human; conditions: FIG. 1; for cAMP production: cells co-transfected with TSHR-A623I, in the presence of TSH; for decrease in cAMP production compared to TSHR-A623I with endogenous GPR24 (GPR24 wt): co-transfected with TSHR-A623I
Description: (§1) A Gi coupled receptor is known to inhibit adenylyl cyclase, and, therefore, decrease the level of cAMP production, which can make assessment of cAMP levels challenging. An effective technique in measuring the decrease in production of cAMP as an indication of constitutive activation of a receptor that predominantly couples Gi upon activation can be accomplished by co-transfecting a signal enhancer, e.g., a non-endogenous, constitutively activated receptor that predominantly couples with Gs upon activation (e.g., TSHR-A623I, disclosed below), with the Gi linked GPCR (such a technique is exemplified herein with the Gi coupled receptor, GPR24). As is apparent, constitutive activation of a Gs coupled receptor can be determined based upon an increase in production of cAMP. Constitutive activation of a Gi coupled receptor leads to a decrease in production cAMP. Thus, the co-transfection approach is intended to advantageously exploit these “opposite” affects. For example, co-transfection of a non-endogenous, constitutively activated Gs coupled receptor (the “signal enhancer”) with the endogenous Gi coupled receptor (the “target receptor”) provides a baseline cAMP signal (i.e., although the Gi coupled receptor will decrease cAMP levels, this “decrease” will be relative to the substantial increase in cAMP levels established by constitutively activated Gs coupled signal enhancer). By then co-transfecting the signal enhancer with a constitutively activated version of the target receptor, cAMP would be expected to further decrease (relative to base line) due to the increased functional activity of the Gi target (i.e., which decreases cAMP).
(§2) TSHR is a Gs coupled GPCR that causes the accumulation of cAMP upon activation. TSHR was constitutively activated by mutating amino acid residue 623 (i.e., changing an alanine residue to an isoleucine residue). See, SEQ.ID.NO.:402 for nucleic acid sequence and SEQ.ID.NO.:403 for deduced amino acid sequence. A Gi coupled receptor is expected to inhibit adenylyl cyclase, and, therefore, decrease the level of cAMP production, which can make assessment of cAMP levels challenging. An effective technique for measuring the decrease in production of cAMP as an indication of constitutive activation of a Gi coupled receptor can be accomplished by co-transfecting, most preferably, non-endogenous, constitutively activated TSHR (TSHR-A623I) (or an endogenous, constitutively active Gs coupled receptor) as a “signal enhancer” with a Gi linked target GPCR, such as GPR24, to establish a baseline level of cAMP. Upon creating a non-endogenous version of the Gi coupled receptor, this non-endogenous version of the target GPCR is then co-transfected with the signal enhancer, and it is this material that can be used for screening. We utilized such approach to effectively generate a signal when a cAMP assay is used; this approach is preferably used in the direct identification of candidate compounds against Gi coupled receptors. It is noted that for a Gi coupled GPCR, when this approach is used, an inverse agonist of the target GPCR will increase the cAMP signal and an agonist will decrease the cAMP signal.
(§3) On day one, 2×10^4 Hek-293 and Hek-293T cells/well were plated out. On day two, two reaction tubes were prepared (the proportions to follow for each tube are per plate): tube A was prepared by mixing 2 μg DNA of each receptor transfected into the mammalian cells, for a total of 4 μg DNA (e.g., pCMV vector; pCMV vector with mutated THSR (TSHR-A623I); TSHR-A623I and GPR24, etc.) in 1.2 ml serum free DMEM (Irvine Scientific, Irvine, Calif.); tube B was prepared by mixing 120 μl lipofectamine (Gibco BRL) in 1.2 ml serum free DMEM. Tubes A and B were then admixed by inversion (several times), followed by incubation at room temperature for 30–45 min. The admixture is referred to as the “transfection mixture”. Plated Hek-293 cells were washed with 1×PBS, followed by addition of 10 ml serum free DMEM. […]

GPR24 [2] = test: Intracellular IP3 accumulation assay (Gq-associated receptors); type: cell-based, human; conditions: FIG. 4
Method: On day 1, cells comprising the receptors (endogenous and/or non-endogenous) can be plated onto 24 well plates, usually 1×10^5 cells/well (although this number can be optimized. On day 2 cells can be transfected by firstly mixing 0.25 μg DNA in 50 μL serum free DMEM/well and 2 μL lipofectamine in 50 μl serum-free DMEM/well. The solutions are gently mixed and incubated for 15–30 min at room temperature. Cells are washed with 0.5 ml PBS and 400 μl of serum free media is mixed with the transfection media and added to the cells. The cells are then incubated for 3–4 hrs at 37° C./5% CO2 and then the transfection media is removed and replaced with 1 ml/well of regular growth media. On day 3 the cells are labeled with ^3H-myo-inositol. Briefly, the media is removed and the cells are washed with 0.5 ml PBS. Then 0.5 ml inositol-free/serum free media (GIBCO BRL) is added/well with 0.25 μCi of ^3H-myo-inositol/well and the cells are incubated for 16–18 hrs o/n at 37° C./5% CO2. On Day 4 the cells are washed with 0.5 ml PBS and 0.45 ml of assay medium is added containing inositol-free/serum free media 10 μM pargyline 10 mM lithium chloride or 0.4 ml of assay medium and 50 μL of 10× ketanserin (ket) to final concentration of 10 μM. The cells are then incubated for 30 min at 37° C. […]

GPR5 = test: Cell-based cAMP for Gi coupled target GPCRs, co-transfection with signal enhancer TSHR-A623I; parameters: species or system human; conditions: FIG. 2
Description: as §1, §2, §3

Molecule: GPR24 wt: endogenous human GPR24 (also known as MCH or SLC-1) receptor [reference compound]
cAMP production (GPR24 [1]): 336.5 pmol cAMP/well

Molecule: GPR5 wt: endogenous target receptor GPR5
cAMP production (GPR5; cells co-transfected with TSHR-A623I, in the presence of TSH): 58.79 pmol cAMP/well
decrease in production of cAMP against pCMV co-transfected with TSHR-A623I (GPR5; reference pCMV + TSHR-A623I 106.75 pmol cAMP/well): ~45%

Further lines, with some results ahead:

increase in IP3 accumulation compared to the endogenous version of GPR24 (GPR24 wt) (GPR24 [2]): ~32%
Molecule: I261Q: non-endogenous version of the human GPR24 receptor with I261Q mutation (SEQ.ID.NO.:387)
decrease in cAMP production compared to TSHR-A623I with endogenous GPR24 (GPR24 wt) (GPR24 [1]): ~27%

increase in IP3 accumulation compared to the endogenous version of GPR24 (GPR24 wt) (GPR24 [2]): ~27%
B1: 24-IC3-SST2: non-endogenous human GPR24 in which the IC3 loop is replaced with that of SST2 (SEQ.ID.NO.:359) (protein, listed as Homo sapiens)
chain: MDLEASLLPTGPNASNTSDGPDNLTSAGSPPRTGSISYINIIMPSVFGTICLLGIIGNSTVIFAVVKKSKLHWCNNVPDIFIINLSVVDLLFLLGMPFMIHQLMGNGVWHFGETMCTLITAMDANSQFTSTYILTAMAIDRYLATVHPISSTKFRKPSVATLVICLLWALSFISITPVWLYARLIPFPGGAVGCGIRLPNPDTDLYWFTLYQFFLAFALPFVVITAAYVRILQKVKSSGIRVGSSKRKKSEKKVTRTAIAICLVFFVCWAPYYVLQLTQLSISRPTLTFVYLYNAAISLGYANSCLNPFVYIVLCETFRKRLVLSVKPAAQGQLRAVSNAQTADEERTESKGTYFPCHPAHLQVRAPQHATGRDAEKNPRPLGKCRKAGLGVVAMKIHSMGSHVAGEAWSQVWGFQISEIPWGSRMRPLDRTEAEQENMLVWITGC
cAMP production (GPR24 [1]): 262.266 pmol cAMP/well
decrease in cAMP production compared to TSHR-A623I with endogenous GPR24 (GPR24 wt) (GPR24 [1]): ~22%
